Peptide text beside a SMILES is read from it.
Legend:
BM-MNC [1] = assay: Apoptosis evaluation via observation of nuclear morphology; assay type: cell-based, mouse; conditions: 100 μM, pre-treated or continued presence, 5 days of culture, FIG. 13
Procedure: BM-MNC were grown onto gelatin/vitronectin matrix for 5 days in EBM in the continued presence of TSP1 or the 4N1-1 and 4N1-2 peptides, or treated for the last 24 h only. […] Non adherent cells were eliminated and adherent cells fixed with PBS-PFA 4% followed by addition of DAPI (Di-aminidophenylindol, 0.01 mg/ml) that becomes fluorescent after integration between DNA bases. […] Experiments were repeated at least three times.
After observing increased BM-MNC adhesion following treatment with peptide 4N1-1, the inventors examined the extent of apoptosis triggered by peptide 4N1-1.

BM-MNC [2] = assay: BM-MNC adhesion onto gelatin/vitronectin or fibrin gels for 30 min after pre-treatment; assay type: cell-based, mouse; conditions: 2 h pre-treatment
Procedure: Tibias, femurs and humerus of C57BL/6 male mice were carefully dissected, bone marrow was extracted and dissociated, and bone marrow mononuclear cells (BM-MNC) were separated by differential centrifugation on Ficoll gradients (Histopaque-1083, Sigma), (2,000 r.p.m, 25 min). BM-MNC were then washed with PBS and pelleted (2,000 r.p.m, 10 min).
(§1) To evaluate the effects of TSP1 or peptides derived from its carboxyterminal sequence, 4N1-1 and 4N1-2, on cell adhesion onto gelatin/vitronectin, fibrin gels or activated SVEC monolayers, 2.10^6/ml BM-MNC or PBMC, or 10^6/ml HUCB-EPC were pretreated for 2 h at 37° C. in an incubator with 5% CO2, in the presence of TSP1 ([…]), or the 4N1-1 or 4N1-2 peptides (100 μM), or control BSA (1%), or with mouse monoclonal anti-human CD47 IgG1 B6H12 (40 μg/ml), or matched control isotype mouse IgG1 (40 μg/ml), before PBS washes and culture for the specified length of time. For adhesion experiments, supernatants were removed, adherent cells were gently washed with PBS. The number of adherent cells per high power field was counted in 3 to 5 fields per well using an inverted phase-contrast microscope at high magnification (×400).
(§2) Mouse BM-MNC and HUCB-EPC adhesion was evaluated in vitro. The effects of purified or recombinant platelet proteins, or peptide agonists of the CD47/IAP receptor was characterized. Two main approaches were used: • 1. Pre-incubation of the cells with platelet proteins for 2 h before measuring their adhesion on gelatin/vitronectin control matrix or fibrin gels for 30 min. • 2. Cell adhesion on gelatin/vitronectin control matrix or fibrin gels for 16 h in the presence of platelet proteins in solution.

BM-MNC [3] = assay: Apoptosis evaluation via quantification of intact DNA content; assay type: cell-based; conditions: 50 μM for 10 or 120 min, culture up to 24 hours, FIG. 29
Procedure: BM-MNC were isolated and treated with 4N1-1 peptide for 10 or 120 min, washed with PBS and cultured in EBM onto gelatin/vitronectin matrix for up to 24 hours. Untreated fresh cells served as control for live cells. […] After treatment and culture, non adherent and adherent cells were harvested and analyzed separately, fixed with ice-cold ethanol 70% in PBS, and incubated for 45 min in PBS containing Triton X-100 (0.05%), propidium iodide (PI; 50 μg/ml) and RNase-A (100 μg/ml). PI becomes fluorescent after integration between DNA bases. […] Experiments were repeated three times.
The inventors examined the extent of apoptosis in BM-MNC treated with peptide 4N1-1 and 4N1-2, using a second method. BM-MNC were pre-treated with 4N1-1 or 4N1-2 (50 μM) for 10 or 120 min, and cultured in full EBM2 medium, with serum and growth factors for up to 24 hours, to allow potential apoptotic reactions to proceed (FIG. 29). […] After culture, adherent and non-adherent cells were harvested and analyzed separately.

[4] = systemic injection of significant doses; cited from earlier work
HUCB-EPC = HUCB-EPC adhesion onto gelatin/vitronectin or fibrin gels for 15 min after pre-treatment; assay type: cell-based, Human; conditions: 2 h pre-treatment, 15 min adhesion, FIG. 8
Procedure: Human umbilical cord blood (30-50 ml) was collected in sterile tubes containing heparin (15 UI/ml, Sanofi) following standard protocols in agreement with Hôpital Lariboisiére and Inserm ethical guidelines. PBMC were isolated via Ficoll gradient centrifugation (Histopaque-1077, Dominique Dutscher). To eliminate mature endothelial cells, mononuclear cells were seeded (6.10^6 cells/ml) in culture dishes (100×20 mm) at 37° C. with 5% CO2 for 16 h. Adherent cells were eliminated. Non-adherent cells were cultured and differentiated into Human umbilical cord blood-derived endothelial progenitor cells (HUCB-EPC) in 6-well plates (10^7 cells/well) on collagen type 1 matrix (Coll1; 90 μg/ml, Sigma) in M199 growth medium (Gibco) complete with L-glutamine, HEPES buffer (25 mM; Eurobio), antibiotics and antimycotics (penicillin 10000 units/ml, streptomycin 10,000 μg/ml, fongizone 25 μg/ml) and 20% FCS (Dominique Dutscher), as well as 10 ng/ml VEGF (R&D Systems).
as §1

BM-MNC [5] = assay: Endothelial differentiation of BM-MNC (Dil-Ac-LDL / BS1-lectin double labelling); assay type: cell-based, mouse; conditions: 2 h pre-treatment, 5 days culture, FIG. 12
Procedure: BM-MNC were cultured onto gelatin/vitronectin in EBM medium for 5 days. After eliminating non adherent cells, EPC were identified through double-labelling for two endothelial characteristics: incorporation of Dil-labelled acetylated low density lipoproteins (Dil-Ac-LDL; 1 μg/ml, BioHarbor Products; red fluorescence) and binding of FITC-labelled BS1-lectin (1 μg/ml, Sigma; green fluorescence). Double fluorescence allowed the microscopic identification and counting of EPC in 3 to 5 fields per well (400× magnification). Experiments were repeated at least three times, and results expressed as percentages of EPC.
Following the previous observation that TSP1 and peptide 4N1-1 stimulate BM-MNC adhesion in vitro, the inventors measured the endothelial differentiation of treated BM-MNC. BM-MNC were cultured for 5 days, following a 2 h pre-treatment with recombinant or purified TSP1, or with peptides 4N1-1, 4N1-2, or CSVTCG (a peptide derived from the TSP1 sequence). EPC-differentiated BM-MNC were identified by fluorescence microscopy after double-labelling for Dil-Ac-LDL incorporation and BS1 lectin binding.

BM-MNC [6] = assay: BM-MNC adhesion onto interleukin-1β-pre-activated murine endothelial monolayers; assay type: cell-based, mouse; conditions: 2 h pre-treatment; TSP1 10 μg/ml, 4N1-1 100 μM; 30 min adhesion, FIG. 9
Procedure: SV40-transformed mouse lymph node endothelial cells (SVEC from ATCC), were grown in Dulbecco's Modified Eagle Medium (DMEM) supplemented with 20% FCS in 24 well plaques until they reached full confluency (7 days). SVEC monolayers were activated with 5 nM murine interleukin-1β (Calbiochem) for 2 h prior to cell-cell adhesion experiments.
as §1
BM-MNC were pre-treated for 2 h with recombinant or purified human TSP1 (10 μg/ml), or with peptide 4N1-1 (100 μM), and measured their adhesion after 30 min onto interleukin-1β-pre-activated murine endothelial monolayers. […]

BM-MNC [7] = assay: BM-MNC adhesion onto gelatin/vitronectin for 16 h with proteins in solution; assay type: cell-based, mouse; conditions: 16 h in presence of 100 μg/ml, FIG. 3
Procedure: as §2
BM-MNC were incubated for 16 h on gelatin/vitronectin matrix in the presence of PPP, recombinant TSP1 (100 μg/ml), or peptide 4N1-1 (100 μM) before adhesion was quantified through direct cell counts by phase-contrast microscopy. As reported in FIG. 3, TSP1 stimulated adhesion by over three fold compared to the gelatin/vitronectin control (+206.8%, p<0.05).

[8] = 30 min adhesion, gelatin/vitronectin, FIG. 26
[9] = BM-MNC, 30 min adhesion, FIG. 1

Compound: CSCC[C@H](NC(=O)[C@@H](NC(=O)[C@@H](NC(=O)[C@H](Cc1ccc(O)cc1)NC(=O)[C@H](Cc1ccccc1)NC(=O)[C@@H](N)CCCNC(=N)N)C(C)C)C(C)C)C(=O)N[C@@H](Cc1c[nH]c2ccccc12)C(=O)N[C@@H](CCCCN)C(=O)O [4N1-1]
- apoptosis compared to BSA (BM-MNC [1]): did not stimulate apoptosis significantly

Compound: FIRVVMYEGKK (7N3 peptide)
- modulation of BM-MNC adhesion compared with BSA (BM-MNC [2]; [8]): stimulated BM-MNC adhesion significantly

Compound: TSP1: recombinant or purified Thrombospondin-1, not specified which at b144
- stimulation of adhesion on fibrin compared with BSA (BM-MNC [2]; [9]): +74.0%
- stimulation of adhesion onto gelatin/vitronectin compared with BSA (BM-MNC [2]; [9]): +160.6%

Compound: leptin: recombinant human leptin (Biovision)
- modulation of BM-MNC adhesion compared with BSA (BM-MNC [2]; SDF1 100 ng/ml, EphB2-Fc 3 μg/ml, EBM2 50%, leptin 100 ng/ml, gelatin/vitronectin 30 min, FIG. 27): moderate increase

Compound: CSVTCG (TSP-1 fragment) [reference compound]
- inhibition of adhesion compared with BSA (BM-MNC [2]; 30 min adhesion, gelatin/vitronectin, FIG. 7): 21%

Compound: FIRGGMYEGKK (7NGG) [mutated 7N3, reference compound]
- modulation of BM-MNC adhesion compared with BSA (BM-MNC [2]; [8]): no significant modulation

Compound: CSCC[C@H](NC(=O)[C@@H](NC(=O)[C@@H](NC(=O)[C@H](Cc1ccc(O)cc1)NC(=O)[C@H](Cc1ccccc1)NC(=O)[C@@H](N)CCCNC(=N)N)C(C)C)C(C)C)C(=O)O [4N1-2, RFYVVM, reference compound] (H-RFYVVM-OH)
- apoptosis compared to staurosporine or control, adherent and non-adherent cells (BM-MNC [3]): did not stimulate apoptosis significantly
- apoptosis compared to BSA (BM-MNC [1]): did not stimulate apoptosis significantly

Compound: KRFYVVMWKK (4N1K peptide)
- gross coagulation parameters [4]: does not modulate gross coagulation parameters
- lethality [4]: not lethal

Compound: RFYGGMWK (4NGG) [mutated 4N1-1, reference compound]
- modulation of BM-MNC adhesion compared with BSA (BM-MNC [2]; [8]): no significant modulation

Compound: purified TSP1: Human purified Thrombospondin-1 prepared at Inserm Unit U553
- stimulation of HUCB-EPC adhesion onto fibrin compared with BSA (HUCB-EPC): +33.3%
- stimulation of HUCB-EPC adhesion onto gelatin-vitronectin compared with BSA (HUCB-EPC): +52.5%
- stimulation of endothelial differentiation vs BSA (BM-MNC [5]): +28.9%
- stimulation of BM-MNC adhesion onto gelatin/vitronectin compared with BSA (BM-MNC [2]; 30 min adhesion, FIG. 7): +143.8%
- stimulation of adhesion onto endothelial monolayers compared with BSA (BM-MNC [6]): +40.5%

Compound: recombinant TSP1: Human recombinant Thrombospondin-1 produced by EMP-Genetech
- stimulation of adhesion compared to the gelatin/vitronectin control (BM-MNC [7]): +206.8%
- stimulation of HUCB-EPC adhesion onto fibrin compared with BSA (HUCB-EPC): +37.6%
- stimulation of HUCB-EPC adhesion onto gelatin-vitronectin compared with BSA (HUCB-EPC): +106.3%
- stimulation of endothelial differentiation vs BSA (BM-MNC [5]): +28.0%
- concentration at which maximal stimulation of adhesion was reached (BM-MNC [2]; 30 min adhesion, FIG. 2): 20 µg/mL
- concentration from which adhesion onto gelatin/vitronectin was stimulated significantly (BM-MNC [2]; 30 min adhesion, FIG. 2): ≥ 5 µg/mL
- stimulation of BM-MNC adhesion onto gelatin/vitronectin compared with BSA (BM-MNC [2]; 30 min adhesion, FIG. 7): +65.6%
- maximal stimulation of adhesion onto gelatin/vitronectin compared with BSA (BM-MNC [2]; at 20 μg/ml, FIG. 2): +179.3%
- stimulation of adhesion onto endothelial monolayers compared with BSA (BM-MNC [6]): +34.2%

— patent publication US8828724B2, “Method for preparing cells for engraftment” (Institut National de la Sante et de la Recherche Medicale …, priority 2007, dated 2014)
